Measurements taken from patent US5491155A, “Substituted thiadiazoles, compositions containing them and their use as antimicrobial and marine antifouling agents” (The Dow Chemical Company, priority 1994, dated 1996).
Values after ≈ are worked out from the molar mass of the structure shown. Like-named read-outs stand apart in the source and are kept apart here. Values belong to the compound of their own block, whether it stands above or below them.

Tests used:
Klebsiella pneumonias = test: MIC in nutrient agar, Klebsiella pneumonias; type: cell-based, Klebsiella pneumonias (ATCC 8308)
Description: (§1) The minimum inhibitory concentration (MIC) for the compounds listed in Table I is determined for bacteria, using nutrient agar, and 7 yeast and fungi, using malt yeast agar. A one percent solution of the test compound is prepared in a mixture of acetone and water.
(§2) Nutrient agar is prepared at pH 6.8, representing a neutral medium, and at pH 8.2, representing an alkaline medium. The nutrient agars are prepared by adding 23 g of nutrient agar to one-liter of deionized water. In addition, the alkaline medium is prepared by adjusting a 0.04M solution of N-(tris-(hydroxymethyl)methyl)glycine buffered deionized water with concentrated sodium hydroxide to a pH of 8.5.
(§3) The test tubes containing the agar are cooled in a water bath until the temperature of the agar is 48° C. Then, an appropriate amount of the one percent solution of the test compound is added (except in the controls where no compound is added) to the respective test tubes so that the final concentrations are 500, 250, 100, 50, 25, 10, 2.5, 1.0 and zero parts per million of the test compound in the agar, thus having a known concentration of test compound dispersed therein. The contents of the test tubes are then transferred to respective petri plates. After drying for 24 hours, the petri plates containing nutrient agar are inoculated with bacteria and those containing malt yeast agar are inoculated with yeast and fungi.
(§4) The inoculation with bacteria is accomplished by using the following procedure. Twenty-four hour-cultures of each of the bacteria are prepared by incubating the respective bacteria in tubes containing nutrient broth for 24 hours at 30° C. in a shaker. Dilutions of each of the 24 hour-cultures are made so that nine separate suspensions (one for each of the nine test bacteria) are made, each containing 10^8 colony forming units (CFU) per mL of suspension of a particular bacteria. Aliquots of 0.3 mL of each of the bacterial suspensions are used to fill the individual wells of Steer's Replicator. For each microbial suspension, 0.3 mL was used to fill three wells (i.e., three wells of 0.3 mL each) so that for the nine different bacteria, 27 wells are filled. The Steer's Replicator is then used to inoculate both the neutral and alkaline pH nutrient agar petri plates.
(§5) The inoculated petri plates are incubated at 30° C. for 48 hours and then read to determine if the test compound which is incorporated into the agar prevented growth of the respective bacteria.
(§6) Table II lists the bacteria, yeast and fungi used in the MIC test described above along with their respective American Type Culture Collection (ATCC) identification numbers.
(§7) In Tables III and IV, the MIC values of the compounds described in Table I as compared to the MIC of a standard commercial preservative (with 1-(3-chloroalkyl)-3,5,7-triaza-1-azoniaadamantane chloride as the active agent and referred to in Tables III and IV as "STANDARD I") are set forth for the bacteria organisms and yeast/fungi organisms which are listed in Table II.

Pseudomonas aeruginosa = test: MIC in nutrient agar, Pseudomonas aeruginosa (Pa); type: cell-based, Pseudomonas aeruginosa (ATCC 10145)
Description: as §1, §2, §3, §4, §5, §6, §7

Fusarium oxysporum = test: MIC in malt yeast agar, Fusarium oxysporum; type: cell-based, Fusarium oxysporum (ATCC 48112); details: read-out: Minimum Inhibitory Concentration (MIC)
Description: as §1
(§8) Malt yeast agar is prepared by adding 3 g yeast extract and 45 g malt agar per liter of deionized water. The specific agar is dispensed in 30 mL aliquots into 25×200 mm test tubes, capped and autoclaved for 15 minutes at 115° C.
as §3
(§9) The inoculation with the yeast and fungi is accomplished as follows. Cultures of yeast and fungi are incubated for seven days on malt yeast agar at 30° C. These cultures are used to prepare suspensions by the following procedure. A suspension of each organism is prepared by adding 10 mL of sterile saline and 10 microliters of octylphenoxy polyethoxy ethanol to the agar slant of yeast or fungi. The sterile saline/octylphenoxy polyethoxy ethanol solution is then agitated with a sterile swab to suspend the microorganism grown on the slant. Each resulting suspension is diluted into sterile saline (1 part suspension: 9 parts sterile saline). Aliquots of these dilutions are placed in individual wells of Steer's Replicator and petri plates inoculated as previously described. The petri plates are incubated at 30° C. and read after 48 hours for yeast and 72 hours for fungi.
as §6, §7

Candida albicans = test: MIC in malt yeast agar, Candida albicans; type: cell-based, Candida albicans (ATCC 10231); details: read-out: Minimum Inhibitory Concentration (MIC)
Description: as §1, §8, §3, §9, §6, §7

Proteus vulgaris = test: MIC in nutrient agar, Proteus vulgaris; type: cell-based, Proteus vulgaris (ATCC 881)
Description: as §1, §2, §3, §4, §5, §6, §7

Staphylococcus aureus = test: MIC in nutrient agar, Staphylococcus aureus; type: cell-based, Staphylococcus aureus (ATCC 6538)
Description: as §1, §2, §3, §4, §5, §6, §7

Bacillus subtilis = test: MIC in nutrient agar, Bacillus subtilis; type: cell-based, Bacillus subtilis (ATCC 8473)
Description: as §1, §2, §3, §4, §5, §6, §7

Aureobasidium pullulan = test: MIC in malt yeast agar, Aureobasidium pullulan; type: cell-based, Aureobasidium pullulan (ATCC 16622); details: read-out: Minimum Inhibitory Concentration (MIC)
Description: as §1, §8, §3, §9, §6, §7

Enterobacter aerogenes = test: MIC in nutrient agar, Enterobacter aerogenes; type: cell-based, Enterobacter aerogenes (ATCC 13048); details: Klebsiella aerogenes
Description: as §1, §2, §3, §4, §5, §6, §7

[1] = system: Pseudomonas aeruginosa (PRD-10); test: MIC in nutrient agar, Pseudomonas aeruginosa (PRD-10); type: cell-based, Pseudomonas aeruginosa (ATCC 15442)
Description: as §1, §2, §3, §4, §5, §6, §7

Penicillium chrysogenum = test: MIC in malt yeast agar, Penicillium chrysogenum; type: cell-based, Penicillium chrysogenum (ATCC 9480); details: read-out: Minimum Inhibitory Concentration (MIC)
Description: as §1, §8, §3, §9, §6, §7

Aspergillus niger = test: MIC in malt yeast agar, Aspergillus niger; type: cell-based, Aspergillus niger (ATCC 16404); details: read-out: Minimum Inhibitory Concentration (MIC)
Description: as §1, §8, §3, §9, §6, §7

Escherichia coli = test: MIC in nutrient agar, Escherichia coli; type: cell-based, Escherichia coli (ATCC 11229)
Description: as §1, §2, §3, §4, §5, §6, §7

Saccharomyces cerevisiae = test: MIC in malt yeast agar, Saccharomyces cerevisiae; type: cell-based, Saccharomyces cerevisiae (ATCC 4105); details: read-out: Minimum Inhibitory Concentration (MIC)
Description: as §1, §8, §3, §9, §6, §7

Salmonella choleraesuis = test: MIC in nutrient agar, Salmonella choleraesuis; type: cell-based, Salmonella choleraesuis (ATCC 10708); details: Salmonella enterica
Description: as §1, §2, §3, §4, §5, §6, §7

Trichoderma viride = test: MIC in malt yeast agar, Trichoderma viride; type: cell-based, Trichoderma viride (ATCC 8678); details: read-out: Minimum Inhibitory Concentration (MIC)
Description: as §1, §8, §3, §9, §6, §7

[2] = 48 h, pH 6.8, read-out: Minimum Inhibitory Concentration (MIC)
[3] = 48 h, pH 8.2, read-out: Minimum Inhibitory Concentration (MIC)
[4] = Kp, pH 6.8, 30° C., 48 hours, read-out: Minimum Inhibitory Concentration (MIC)
[5] = Pa, pH 6.8, 30° C., 48 hours, read-out: Minimum Inhibitory Concentration (MIC)
[6] = Fo, malt yeast agar, 30° C., 72 hours for fungi
[7] = Ca, malt yeast agar, 30° C., 48 hours for yeast
[8] = Pv, pH 6.8, 30° C., 48 hours, read-out: Minimum Inhibitory Concentration (MIC)
[9] = Sa, pH 6.8, 30° C., 48 hours, read-out: Minimum Inhibitory Concentration (MIC)
[10] = Bs, pH 6.8, 30° C., 48 hours, read-out: Minimum Inhibitory Concentration (MIC)
[11] = Ap, malt yeast agar, 30° C., 72 hours for fungi
[12] = Ea, pH 6.8, 30° C., 48 hours, read-out: Minimum Inhibitory Concentration (MIC)
[13] = PRD, pH 6.8, 30° C., 48 hours, read-out: Minimum Inhibitory Concentration (MIC)
[14] = Pc, malt yeast agar, 30° C., 72 hours for fungi
[15] = An, malt yeast agar, 30° C., 72 hours for fungi
[16] = Ec, pH 6.8, 30° C., 48 hours, read-out: Minimum Inhibitory Concentration (MIC)
[17] = Sc, malt yeast agar, 30° C., 48 hours for yeast
[18] = Sc, pH 6.8, 30° C., 48 hours, read-out: Minimum Inhibitory Concentration (MIC)
[19] = Tv, malt yeast agar, 30° C., 72 hours for fungi

Structure (SMILES): N#CSc1nsnc1Cl [Example 1, 4-Chloro-3-thiocyanato-1,2,5-thiadiazole]
MIC (Klebsiella pneumonias; [2]): 25 µg/mL (≈ 141 µM)
MIC (Klebsiella pneumonias; [3]): > 500 µg/mL
MIC (Pseudomonas aeruginosa; [2]): 25 µg/mL (≈ 141 µM)
MIC (Pseudomonas aeruginosa; [3]): > 500 µg/mL
MIC (Fusarium oxysporum; 72 h): < 10 µg/mL
MIC (Candida albicans; 48 h): < 10 µg/mL
MIC (Proteus vulgaris; [2]): 25 µg/mL (≈ 141 µM)
MIC (Proteus vulgaris; [3]): > 500 µg/mL
MIC (Staphylococcus aureus; [2]): 25 µg/mL (≈ 141 µM)
MIC (Staphylococcus aureus; [3]): > 500 µg/mL
MIC (Bacillus subtilis; [2]): 25 µg/mL (≈ 141 µM)
MIC (Bacillus subtilis; [3]): 500 µg/mL (≈ 2810 µM)
MIC (Aureobasidium pullulan; 72 h): < 10 µg/mL
MIC (Enterobacter aerogenes; [2]): 50 µg/mL (≈ 281 µM)
MIC (Enterobacter aerogenes; [3]): > 500 µg/mL
MIC [1, 2]: 50 µg/mL (≈ 281 µM)
MIC [1, 3]: > 500 µg/mL
MIC (Penicillium chrysogenum; 72 h): < 10 µg/mL
MIC (Aspergillus niger; 72 h): < 10 µg/mL
MIC (Escherichia coli; [2]): 25 µg/mL (≈ 141 µM)
MIC (Escherichia coli; [3]): > 500 µg/mL
MIC (Saccharomyces cerevisiae; 48 h): < 10 µg/mL
MIC (Salmonella choleraesuis; [2]): 25 µg/mL (≈ 141 µM)
MIC (Salmonella choleraesuis; [3]): > 500 µg/mL
MIC (Trichoderma viride; 72 h): < 10 µg/mL

MIC (Klebsiella pneumonias; [4]): 25 µg/mL (≈ 120 µM)
MIC (Klebsiella pneumonias; Kp, pH 8.2, 30° C., 48 hours, read-out: Minimum Inhibitory Concentration (MIC)): 25 µg/mL (≈ 120 µM)
MIC (Pseudomonas aeruginosa; [5]): 50 µg/mL (≈ 241 µM)
MIC (Pseudomonas aeruginosa; Pa, pH 8.2, 30° C., 48 hours, read-out: Minimum Inhibitory Concentration (MIC)): 50 µg/mL (≈ 241 µM)
MIC (Fusarium oxysporum; [6]): < 10 µg/mL
MIC (Candida albicans; [7]): < 10 µg/mL
MIC (Proteus vulgaris; [8]): < 10 µg/mL
MIC (Proteus vulgaris; Pv, pH 8.2, 30° C., 48 hours, read-out: Minimum Inhibitory Concentration (MIC)): 25 µg/mL (≈ 120 µM)
MIC (Staphylococcus aureus; [9]): 25 µg/mL (≈ 120 µM)
MIC (Staphylococcus aureus; Sa, pH 8.2, 30° C., 48 hours, read-out: Minimum Inhibitory Concentration (MIC)): 25 µg/mL (≈ 120 µM)
MIC (Bacillus subtilis; [10]): < 10 µg/mL
MIC (Bacillus subtilis; Bs, pH 8.2, 30° C., 48 hours, read-out: Minimum Inhibitory Concentration (MIC)): 25 µg/mL (≈ 120 µM)
MIC (Aureobasidium pullulan; [11]): < 10 µg/mL
MIC (Enterobacter aerogenes; [12]): 50 µg/mL (≈ 241 µM)
MIC (Enterobacter aerogenes; Ea, pH 8.2, 30° C., 48 hours, read-out: Minimum Inhibitory Concentration (MIC)): 50 µg/mL (≈ 241 µM)
MIC [1, 13]: 100 µg/mL (≈ 482 µM)
MIC ([1]; PRD, pH 8.2, 30° C., 48 hours, read-out: Minimum Inhibitory Concentration (MIC)): 100 µg/mL (≈ 482 µM)
MIC (Penicillium chrysogenum; [14]): < 10 µg/mL
MIC (Aspergillus niger; [15]): < 10 µg/mL
MIC (Escherichia coli; [16]): 25 µg/mL (≈ 120 µM)
MIC (Escherichia coli; Ec, pH 8.2, 30° C., 48 hours, read-out: Minimum Inhibitory Concentration (MIC)): 25 µg/mL (≈ 120 µM)
MIC (Saccharomyces cerevisiae; [17]): < 10 µg/mL
MIC (Trichoderma viride; [19]): 25 µg/mL (≈ 120 µM)
Structure (SMILES): N#CSCOc1nsnc1Cl [Example 6, 4-Chloro-3-thiocyanato-methyloxo-1,2,5-thiadiazole]
MIC (Salmonella choleraesuis; [18]): < 10 µg/mL
MIC (Salmonella choleraesuis; Sc, pH 8.2, 30° C., 48 hours, read-out: Minimum Inhibitory Concentration (MIC)): 25 µg/mL (≈ 120 µM)

MIC (Klebsiella pneumonias; [4]): < 10 µg/mL
MIC (Pseudomonas aeruginosa; [5]): < 10 µg/mL
MIC (Fusarium oxysporum; [6]): < 10 µg/mL
MIC (Candida albicans; [7]): 25 µg/mL (≈ 123 µM)
MIC (Proteus vulgaris; [8]): < 10 µg/mL
MIC (Staphylococcus aureus; [9]): < 10 µg/mL
MIC (Bacillus subtilis; [10]): < 10 µg/mL
MIC (Aureobasidium pullulan; [11]): < 10 µg/mL
MIC (Enterobacter aerogenes; [12]): 25 µg/mL (≈ 123 µM)
MIC [1, 13]: 25 µg/mL (≈ 123 µM)
MIC (Penicillium chrysogenum; [14]): < 10 µg/mL
MIC (Aspergillus niger; [15]): < 10 µg/mL
MIC (Escherichia coli; [16]): 25 µg/mL (≈ 123 µM)
MIC (Saccharomyces cerevisiae; [17]): < 10 µg/mL
MIC (Trichoderma viride; [19]): 25 µg/mL (≈ 123 µM)
Structure (SMILES): COc1nsnc1OCSC#N [Example 7, 4-Methoxy-3-thiocyanato-methyloxo-1,2,5-thiadiazole]
MIC (Salmonella choleraesuis; [18]): 25 µg/mL (≈ 123 µM)
